Source: patent US12043644B2, “Benzimidazole derivatives, preparation method thereof and use thereof as anti-cancer agent or anti-virus agent comprising the same” (BIOMETRIX TECHNOLOGY INC, priority 2020, dated 2024)

Experiments:
[1] = system: normal lung cell line MRC-5 and the normal colon CCD-18Co cell line; assay: Toxicity test in normal cell line (WST-8 cell viability); format: cell-based; details: grade evaluated in comparison with doxorubicin, MRC-5 and CCD-18Co, 0-100 μm, 7 concentrations, 72 hours
Description: The normal lung cell line MRC-5 and the normal colon CCD-18Co cell line were furnished from Korea Cell Line Bank (KCLB, Seoul, Korea) and cultured in culture medium. In a humidified cell culture incubator containing 5% CO2 at 37° C. using DMEM, 10% culture flask, fetal bovine serum (FBS), 0.1 mM MEM non-essential amino acids (NEAA), 2 mM L-glutamine, and 1% penicillin-streptomycin were treated with trypsin every 2-3 days according to the guidelines provided by KCLB, and the cells were sub-cultured. The culture was cultured until it reached 80-90% confluence, and the cells were continuously transferred to a culture flask for a cancer cell line growth inhibition experiment. Normal cell lines (MRC-5 and CCD-18Co) were seeded in about 10000 cells per well in a 96-well plate. After 24 hours, the three compounds shown in Table 1 below were added to each well at 7 concentrations, and incubated for 72 hours. The cell viability and analysis in the normal cell line were performed in the same manner as in Test Example 1, and the results of the toxicity test (72 hours) in the normal cell line are shown in FIG. 4.

[2] = system: human lung cancer cell line A549, cervical cancer cell line Hela, and colorectal cancer cell line HT-29; assay: Cancer cell line growth inhibition test (WST-8 cell viability); format: cell-based; details: grade evaluated in comparison with doxorubicin, 0-100 μm, 7 concentrations, incubated for 72 hours
Description: Human lung cancer cell line A549, cervical cancer cell line Hela, and colorectal cancer cell line HT-29 were furnished from Korea Cell Line Bank (KCLB, Seoul, Korea) and cultured in culture medium. In a humidified cell culture incubator containing 5% CO2 at 37° C. using DMEM, 10% culture flask, fetal bovine serum (FBS), 0.1 mM MEM non-essential amino acids (NEAA), 2 mM L-glutamine, and 1% penicillin-streptomycin were treated with trypsin every 2-3 days according to the guidelines provided by KCLB, and the cells were sub-cultured. The culture was cultured until it reached 80-90% confluence, and the cells were continuously transferred to a culture flask for a cancer cell line growth inhibition experiment. Cancer cell lines to be tested (human lung cancer cell line A549, cervical cancer cell line Hela, and colorectal cancer cell line HT-29) were seeded in about 10000 cells per well in a 96-well plate. […] After incubation, the medium was discarded and the cell viability was measured in each well using a WST-8 cell viability assay kit (Quanti-Max™, BIOMAX) according to the procedure instructed by the manufacturer. The analysis utilized the principle that the dehydrogenase in living cells decomposes tetrazolium salts to produce formazan, through which living cells were quantitatively evaluated. […]

## Cl.Nc1nc2ccc(Sc3ccccc3)cc2[nH]1 [Aminophenbendazole, reference compound]
[1]
  Normal cell line growth inhibition test: A A A
[1]; listed as aminophenbendazole
  Normal cell line growth inhibition test: AAA

## OC[C@H]1OC(Nc2nc3ccc(Sc4ccccc4)cc3[nH]2)[C@H](O)[C@@H](O)[C@@H]1O (stereo partly shown) [Phenhendazole-glucose conjugate, 6-(phenylthio)-1H-benzoimidazol-2-aminoglucose]
[2]
  Cancer cell line growth inhibition test: A A A
[2]; listed as phenbendazole-glucose conjugate
  Cancer cell line growth inhibition test: AAA
